# Experimental data taken from patent publication US8742203B2, “Chemically Inducible Expression of Biosynthetic Pathways” (Metabolix, Inc., priority 2005, dated 2014).
# System: 1I Arabidopsis plants
# Test: PHB yield in 1I plants, foliar applications of tebufenozide
# Type: in vivo, Arabidopsis thaliana
# Excerpt: The genes required for the complete PHB production pathway, a β-ketothiolase (thiolase), an NADPH-acetoacetyl-CoA reductase (reductase) and a PHA synthase (synthase), were individually placed under the control of the minimal ^35S ecdysone-inducible promoter, fused to a plastid targeting signal, and cloned into a pCAMBIA (Centre for Application of Molecular Biology to International Agriculture, Canberra, Australia) based multigene plasmid containing the chimeric ecdysone receptor (A. Martinez, C. Sparks, C. A. Hart, J. Thompson, I. Jepson, Plant J. 19: 97 (1999)). This three-gene inducible construct is designated 3I. The single-gene inducible construct designated 1I contained the thiolase gene under the control of the inducible promoter, but unlike the 3I construct, it expressed the reductase and synthase genes under the control of the constitutive 35S-C4PPDK promoter (W. Chiu et al. Curr. Biol. 6: 325 (1996)).
# Further analysis of the 1I construct by screening an additional 235 T1 1I plants identified plants capable of producing 2.5% and 2.6% dwt PHB respectively, in the presence and absence of foliar applications of the inducing agent tebufenozide. The ability of this construct to promote PHB production in a non-inducible fashion was confirmed through analysis of 72 T2 offspring of the best T1 1I plant. […]
structure (smiles),measurement,setting,value
CCc1ccc(C(=O)NN(C(=O)c2cc(C)cc(C)c2)C(C)(C)C)cc1 [tebufenozide],PHB produced by best plants,"additional 235 T1 1I plants screened, in the presence of foliar tebufenozide",2.5 % dwt
same,Average PHB accumulated,"treated T2 1I offspring of best T1 1I plant, in the presence of inducing agent",4.2±2.5 % dwt
